Test results taken from ChEMBL document CHEMBL5291721, “A preclinical secondary pharmacology resource illuminates target-adverse drug reaction associations of marketed drugs” (Nat Commun, 2023).

How the values were obtained:
Adenosine receptor A3 = molecular target: T1, Adenosine receptor A3 (Homo sapiens, UniProt P0DMS8)
T1 sequence (P0DMS8 whole entry): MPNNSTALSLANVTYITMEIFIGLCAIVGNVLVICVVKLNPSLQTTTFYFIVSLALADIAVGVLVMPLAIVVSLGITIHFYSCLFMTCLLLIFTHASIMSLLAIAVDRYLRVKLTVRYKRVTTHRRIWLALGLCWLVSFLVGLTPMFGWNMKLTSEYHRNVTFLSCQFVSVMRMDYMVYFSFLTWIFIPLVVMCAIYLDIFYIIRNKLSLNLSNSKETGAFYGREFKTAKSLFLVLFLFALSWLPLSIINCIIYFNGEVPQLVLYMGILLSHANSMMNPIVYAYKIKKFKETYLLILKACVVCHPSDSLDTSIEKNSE

[1] = molecular target: T2, Gastrin/cholecystokinin type B receptor (Homo sapiens, UniProt P32239)
T2 sequence (P32239 whole entry): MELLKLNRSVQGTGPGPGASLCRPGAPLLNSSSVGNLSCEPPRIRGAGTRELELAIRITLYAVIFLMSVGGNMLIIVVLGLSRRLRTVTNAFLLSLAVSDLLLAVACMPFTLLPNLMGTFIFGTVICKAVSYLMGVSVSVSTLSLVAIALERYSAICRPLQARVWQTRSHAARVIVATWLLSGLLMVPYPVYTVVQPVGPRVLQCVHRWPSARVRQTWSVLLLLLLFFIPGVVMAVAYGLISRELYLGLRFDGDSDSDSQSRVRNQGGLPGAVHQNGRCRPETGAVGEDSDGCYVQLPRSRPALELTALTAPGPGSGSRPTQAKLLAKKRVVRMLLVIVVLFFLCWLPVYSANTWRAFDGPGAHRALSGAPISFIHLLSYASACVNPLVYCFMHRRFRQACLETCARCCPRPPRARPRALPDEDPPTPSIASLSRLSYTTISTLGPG

Progesterone receptor = molecular target: T3, Progesterone receptor (Homo sapiens, UniProt P06401); format: functional
T3 sequence (P06401 whole entry): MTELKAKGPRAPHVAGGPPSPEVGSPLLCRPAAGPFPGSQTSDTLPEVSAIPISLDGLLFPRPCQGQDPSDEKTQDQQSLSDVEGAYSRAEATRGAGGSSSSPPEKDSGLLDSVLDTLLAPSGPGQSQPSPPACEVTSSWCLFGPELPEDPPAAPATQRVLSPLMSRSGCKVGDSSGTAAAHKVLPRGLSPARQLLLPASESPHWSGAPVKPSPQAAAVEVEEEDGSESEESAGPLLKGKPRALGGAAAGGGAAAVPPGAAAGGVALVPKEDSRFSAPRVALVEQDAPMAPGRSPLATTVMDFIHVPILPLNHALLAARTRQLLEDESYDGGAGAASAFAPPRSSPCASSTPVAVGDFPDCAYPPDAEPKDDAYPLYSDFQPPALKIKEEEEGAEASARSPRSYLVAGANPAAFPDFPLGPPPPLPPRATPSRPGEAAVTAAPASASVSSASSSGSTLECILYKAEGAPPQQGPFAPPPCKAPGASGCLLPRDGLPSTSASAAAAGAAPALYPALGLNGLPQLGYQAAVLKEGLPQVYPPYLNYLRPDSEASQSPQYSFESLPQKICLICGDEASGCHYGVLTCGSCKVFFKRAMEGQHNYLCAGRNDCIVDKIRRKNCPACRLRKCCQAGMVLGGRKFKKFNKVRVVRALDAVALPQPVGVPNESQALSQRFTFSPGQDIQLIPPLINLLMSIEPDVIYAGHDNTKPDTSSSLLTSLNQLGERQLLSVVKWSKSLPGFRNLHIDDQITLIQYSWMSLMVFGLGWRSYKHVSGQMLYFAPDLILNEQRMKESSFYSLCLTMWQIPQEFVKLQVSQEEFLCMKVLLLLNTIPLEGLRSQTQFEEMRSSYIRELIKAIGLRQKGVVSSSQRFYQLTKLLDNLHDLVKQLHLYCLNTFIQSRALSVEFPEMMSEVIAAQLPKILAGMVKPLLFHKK

[2] = molecular target: T4, Alpha-2C adrenergic receptor (Homo sapiens, UniProt P18825); format: functional
T4 sequence (P18825 whole entry): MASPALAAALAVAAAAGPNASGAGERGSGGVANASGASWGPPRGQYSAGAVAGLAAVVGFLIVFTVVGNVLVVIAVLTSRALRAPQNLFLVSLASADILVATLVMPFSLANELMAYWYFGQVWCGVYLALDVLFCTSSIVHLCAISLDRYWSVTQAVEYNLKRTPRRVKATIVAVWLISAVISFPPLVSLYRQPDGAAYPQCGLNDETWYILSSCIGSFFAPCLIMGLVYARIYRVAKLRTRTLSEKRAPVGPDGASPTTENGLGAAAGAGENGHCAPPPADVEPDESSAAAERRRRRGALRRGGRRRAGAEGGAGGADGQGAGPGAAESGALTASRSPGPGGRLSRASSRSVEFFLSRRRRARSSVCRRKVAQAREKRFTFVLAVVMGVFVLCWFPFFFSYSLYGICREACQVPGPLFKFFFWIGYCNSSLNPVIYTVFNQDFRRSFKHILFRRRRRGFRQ

[3] = molecular target: T5, Muscarinic acetylcholine receptor M2 (Homo sapiens, UniProt P08172); format: functional, cell-based
T5 sequence (P08172 whole entry): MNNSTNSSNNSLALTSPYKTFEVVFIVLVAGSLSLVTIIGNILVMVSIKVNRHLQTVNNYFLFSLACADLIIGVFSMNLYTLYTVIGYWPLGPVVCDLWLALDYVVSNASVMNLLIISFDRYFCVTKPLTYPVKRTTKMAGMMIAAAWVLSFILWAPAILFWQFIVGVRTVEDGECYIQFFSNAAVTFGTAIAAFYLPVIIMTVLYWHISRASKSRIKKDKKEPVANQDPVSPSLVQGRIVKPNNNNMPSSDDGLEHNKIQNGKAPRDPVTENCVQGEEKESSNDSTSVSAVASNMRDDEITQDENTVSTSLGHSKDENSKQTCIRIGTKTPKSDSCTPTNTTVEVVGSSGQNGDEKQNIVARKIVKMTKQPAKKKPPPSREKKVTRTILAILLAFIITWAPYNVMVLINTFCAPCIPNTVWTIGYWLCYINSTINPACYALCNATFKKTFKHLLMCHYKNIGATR

[4] = molecular target: Voltage-dependent L-type calcium channel subunit alpha-1C (Rattus norvegicus, UniProt P22002); format: functional
Sequence of Voltage-dependent L-type calcium channel subunit alpha-1C (P22002 whole entry): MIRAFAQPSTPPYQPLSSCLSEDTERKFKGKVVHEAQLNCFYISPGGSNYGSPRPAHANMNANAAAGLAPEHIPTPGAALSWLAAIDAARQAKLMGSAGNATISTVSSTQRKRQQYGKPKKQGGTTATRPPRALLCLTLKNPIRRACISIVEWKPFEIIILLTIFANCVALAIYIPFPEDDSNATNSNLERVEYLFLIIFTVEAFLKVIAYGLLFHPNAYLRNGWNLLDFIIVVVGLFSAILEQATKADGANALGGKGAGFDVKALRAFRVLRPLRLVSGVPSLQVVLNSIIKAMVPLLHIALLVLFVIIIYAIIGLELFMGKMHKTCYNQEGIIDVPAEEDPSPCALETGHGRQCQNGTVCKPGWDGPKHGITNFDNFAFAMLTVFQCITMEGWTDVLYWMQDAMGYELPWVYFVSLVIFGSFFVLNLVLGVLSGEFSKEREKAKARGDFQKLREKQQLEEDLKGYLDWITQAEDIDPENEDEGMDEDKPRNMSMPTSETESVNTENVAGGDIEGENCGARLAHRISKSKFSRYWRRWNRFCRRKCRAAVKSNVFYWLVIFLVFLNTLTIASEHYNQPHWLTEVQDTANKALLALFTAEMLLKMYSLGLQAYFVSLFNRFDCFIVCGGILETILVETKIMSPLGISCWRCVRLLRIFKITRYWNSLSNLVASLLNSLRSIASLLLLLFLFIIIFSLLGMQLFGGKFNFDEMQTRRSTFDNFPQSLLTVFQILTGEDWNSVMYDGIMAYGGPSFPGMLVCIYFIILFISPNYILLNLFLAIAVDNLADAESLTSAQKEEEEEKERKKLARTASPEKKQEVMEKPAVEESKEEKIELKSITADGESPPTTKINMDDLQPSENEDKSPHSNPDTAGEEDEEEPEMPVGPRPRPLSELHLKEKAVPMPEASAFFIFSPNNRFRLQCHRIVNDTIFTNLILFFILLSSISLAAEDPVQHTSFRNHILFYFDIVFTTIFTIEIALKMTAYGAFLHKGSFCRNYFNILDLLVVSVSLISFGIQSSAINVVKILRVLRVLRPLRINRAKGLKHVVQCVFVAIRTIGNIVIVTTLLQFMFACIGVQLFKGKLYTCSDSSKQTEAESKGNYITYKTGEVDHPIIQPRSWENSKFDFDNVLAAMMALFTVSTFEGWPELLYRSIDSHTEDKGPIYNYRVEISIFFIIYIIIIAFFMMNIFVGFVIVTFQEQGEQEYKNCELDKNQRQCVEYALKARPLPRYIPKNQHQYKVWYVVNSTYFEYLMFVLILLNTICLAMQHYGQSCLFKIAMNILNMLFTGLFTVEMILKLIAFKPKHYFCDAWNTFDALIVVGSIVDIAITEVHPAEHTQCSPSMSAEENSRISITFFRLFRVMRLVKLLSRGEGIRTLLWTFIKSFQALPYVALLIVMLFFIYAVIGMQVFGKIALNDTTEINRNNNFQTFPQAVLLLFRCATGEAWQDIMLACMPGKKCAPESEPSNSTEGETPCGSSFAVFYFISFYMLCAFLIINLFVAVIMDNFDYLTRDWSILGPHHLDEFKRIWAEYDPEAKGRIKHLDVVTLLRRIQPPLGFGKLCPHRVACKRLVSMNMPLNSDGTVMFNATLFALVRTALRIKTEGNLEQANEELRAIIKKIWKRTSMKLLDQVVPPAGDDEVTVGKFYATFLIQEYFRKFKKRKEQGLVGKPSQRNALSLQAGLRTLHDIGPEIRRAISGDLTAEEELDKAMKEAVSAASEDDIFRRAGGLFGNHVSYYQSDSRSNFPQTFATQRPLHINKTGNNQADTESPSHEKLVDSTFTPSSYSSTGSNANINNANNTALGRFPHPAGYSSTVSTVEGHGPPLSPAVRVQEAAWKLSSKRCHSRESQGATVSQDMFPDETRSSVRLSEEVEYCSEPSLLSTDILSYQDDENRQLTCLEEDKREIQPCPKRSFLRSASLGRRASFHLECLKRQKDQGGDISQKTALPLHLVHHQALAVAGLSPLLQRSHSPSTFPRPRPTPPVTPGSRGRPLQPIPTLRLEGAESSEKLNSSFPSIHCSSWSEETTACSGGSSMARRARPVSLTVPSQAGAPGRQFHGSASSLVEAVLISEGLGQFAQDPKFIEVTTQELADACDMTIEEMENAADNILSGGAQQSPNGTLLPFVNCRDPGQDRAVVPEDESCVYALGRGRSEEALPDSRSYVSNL
Note: assay procedure not described here.

| Structure (SMILES) | AC50 (Adenosine receptor A3) | AC50 [1] | AC50 (Progesterone receptor) | AC50 [2] | AC50 [3] | AC50 [4] |
| --- | --- | --- | --- | --- | --- | --- |
| COc1ccc(-n2nc(C(N)=O)c3c2C(=O)N(c2ccc(N4CCCCC4=O)cc2)CC3)cc1 [APIXABAN] | > 30 µM | > 30 µM | > 30 µM | > 30 µM | > 30 µM |  |
| C[C@@H](Cc1ccccc1)N(C)Cc1ccccc1 [BENZPHETAMINE] | > 10 µM |  | > 10 µM | 0.68 µM | > 10 µM | > 10 µM |
| O=C(O)c1nn(Cc2ccc(Cl)cc2Cl)c2ccccc12 [LONIDAMINE] | > 30 µM | > 30 µM | > 30 µM | > 30 µM | > 30 µM |  |
| CC(C(=O)O)c1ccc(C(=O)c2ccccc2)s1 (stereo not given) [TIAPROFENIC ACID] | > 10 µM |  | > 10 µM | 15 µM | > 10 µM | > 10 µM |
| CCCCCCOC(=O)NC(=N)c1ccc(NCc2nc3cc(C(=O)N(CCC(=O)OCC)c4ccccn4)ccc3n2C)cc1 [DABIGATRAN ETEXILATE] | 11 µM | > 30 µM | > 30 µM | > 30 µM | > 30 µM |  |
| CCC(=O)O[C@H](CC(=O)O)C[N+](C)(C)C [LEVOCARNITINE PROPIONATE] | > 30 µM | > 30 µM | > 30 µM | > 30 µM | > 30 µM |  |
| CCCCCCCC(=O)CC[C@@H]1[C@@H](C/C=C\CCCC(=O)O)[C@@H](O)C[C@H]1O [UNOPROSTONE] | > 30 µM | > 30 µM | > 30 µM | > 30 µM | > 30 µM |  |
| CCCCC[C@H](O)CC[C@@H]1[C@H]2Cc3cccc(OCC(=O)O)c3C[C@H]2C[C@H]1O [TREPROSTINIL] | > 30 µM | > 30 µM | > 30 µM | > 30 µM | > 30 µM |  |
| CN(C)CCOC(=O)C(c1ccccc1)C1(O)CCCC1 (stereo not given) [CYCLOPENTOLATE] | > 10 µM |  | > 10 µM | > 30 µM | > 10 µM | > 10 µM |
| CC(=O)OCC1=C(C(=O)O)N2C(=O)[C@@H](NC(=O)Cc3cccs3)[C@H]2SC1 [CEPHALOTHIN] | > 30 µM | > 30 µM | > 30 µM | > 30 µM | > 30 µM |  |
| CC(=O)OCC1=C(C(=O)O)N2C(=O)[C@@H](NC(=O)CSc3ccncc3)[C@H]2SC1 [CEPHAPIRIN] | > 10 µM |  | > 30 µM | > 10 µM | > 10 µM | > 10 µM |
| Nc1ccc(S(=O)(=O)Nc2ncccn2)cc1 [SULFADIAZINE] | > 10 µM |  | > 10 µM | > 10 µM | > 10 µM | > 10 µM |
| COc1nc(C)nc(Cl)c1N=C1NCCN1 [MOXONIDINE] | > 30 µM | > 30 µM | > 30 µM |  | > 30 µM | > 30 µM |
| CN(Cc1ccc(C(C)(C)C)cc1)Cc1cccc2ccccc12 [BUTENAFINE] | > 10 µM |  | > 30 µM | > 10 µM | > 10 µM | > 10 µM |
